# Experimental data reported in patent US9782399B2, “Pharmaceutical compositions which inhibit FKBP52-mediated regulation of androgen receptor function and methods of using same” (The United States of America, as represented by the …, priority 2009, dated 2017).
# Columns and labels:
# Format in all cases: cell-based
# AR = biological target: T1, AR (Homo sapiens, UniProt P10275, T878A); assay: AR nuclear translocation in LNCaP cells; details: about 30 μM pre-treatment 24 hours, R1881 0.1 nM 2 hours
# T1 construct: endogenous in cells; host or cells: LNCaP
# T1 sequence (P10275 1-920 T878A): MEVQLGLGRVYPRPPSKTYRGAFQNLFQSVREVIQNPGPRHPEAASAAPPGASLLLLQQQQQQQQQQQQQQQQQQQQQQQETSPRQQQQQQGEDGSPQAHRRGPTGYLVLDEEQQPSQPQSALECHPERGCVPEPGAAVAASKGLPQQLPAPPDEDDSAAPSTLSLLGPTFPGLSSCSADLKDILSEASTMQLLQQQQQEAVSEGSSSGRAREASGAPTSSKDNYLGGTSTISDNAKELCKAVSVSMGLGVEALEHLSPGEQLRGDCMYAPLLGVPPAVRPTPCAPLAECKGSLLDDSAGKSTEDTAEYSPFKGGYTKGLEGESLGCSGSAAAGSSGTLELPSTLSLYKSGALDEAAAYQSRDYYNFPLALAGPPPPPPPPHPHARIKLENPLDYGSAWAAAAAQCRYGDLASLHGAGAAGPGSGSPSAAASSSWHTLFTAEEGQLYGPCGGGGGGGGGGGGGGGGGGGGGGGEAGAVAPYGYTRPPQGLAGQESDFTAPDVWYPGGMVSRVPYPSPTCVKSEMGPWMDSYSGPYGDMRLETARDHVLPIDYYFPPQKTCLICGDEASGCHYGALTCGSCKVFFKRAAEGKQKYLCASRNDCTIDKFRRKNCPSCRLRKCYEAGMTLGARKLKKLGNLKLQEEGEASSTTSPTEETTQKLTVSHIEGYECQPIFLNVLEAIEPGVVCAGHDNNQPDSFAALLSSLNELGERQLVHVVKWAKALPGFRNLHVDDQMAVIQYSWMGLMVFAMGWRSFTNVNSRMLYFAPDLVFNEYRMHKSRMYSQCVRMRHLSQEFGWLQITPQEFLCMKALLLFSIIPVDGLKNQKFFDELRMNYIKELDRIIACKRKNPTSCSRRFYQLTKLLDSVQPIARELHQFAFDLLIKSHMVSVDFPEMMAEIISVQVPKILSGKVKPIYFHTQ
# Experimental: LNCaP cells were maintained as above. At 50% confluence, cells were washed several times in serum-free RPMI-1640 medium, and re-cultured for 48 hours in RPMI-1640 medium containing 10% charcoal-stripped fetal bovine serum. At that time, compound 2 (termed 21D1C in FIG. 7) was added to a final concentration of about 30 μM. After an additional 24 hours, R1881 was added (0.1 nM) and cells were cultured for an additional 2 hours. At that time, cells were lysed and separated into nuclear and cytosolic fractions following published methods (Schreiber, et al., Nucleic Acids Res., 17:6419 (1989)). Quantification of AR in nucleus and cytosol was performed by Western blotting with an AR-specific antibody following polyacrylamide gel electrophoresis.
# PSA mRNA = PSA mRNA quantitation in LNCaP cells (RT-PCR); details: 100 μM, 24 hours, R1881
# Experimental: For PSA mRNA determination, cells were cultured and treated identically, except that lysis for mRNA extraction was performed 24 hours after addition of R1881. Total RNA was isolated using protocols and reagents contained in the Qiagen RNeasy Kit (Valencia, Calif.). TaqMan real-time quantitative RT-PCR analysis of PSA was performed using previously described techniques Hong J A, et al., Cancer Res., 65:7763-74 (2005); Guo F, et al., Cancer Res., 65:10536-44 (2005). The amount of PSA mRNA level and total protein in cells from the prostate cancer cell line LNCaP was measured after treatment with either control, or about 1 to 100 μM of each of the four compounds identified in the screen (Compounds 1-4). It was known that the expression of PSA mRNA in LNCaP cells is driven by an androgen receptor mediated pathway. The mRNA is quantified by a photodetection method over time. […] At 100 μM, mRNA expression was decreased to 40% of control levels.
# PSA protein = PSA protein expression in LNCaP cells (Western blotting); details: 100 μM, about 48 hours, R1881 0.5 nM
# Experimental: The amount of PSA protein expression levels was measured in cells from the prostate cancer cell line LNCaP, after treatment with either control, or about 1 to 100 μM of each of the four FTA compounds identified in the screen (Compounds 1-4). The protein was quantified by an immunohistochemical method using photodetection.
# LNCaP cells were maintained in RPMI-1640 medium containing 10% fetal bovine serum. Forty eight hours prior to the experiment, cells were washed several times in serum-free medium and then cultured in RPMI-1640 medium containing 10% charcoal-stripped fetal bovine serum (to remove endogenous androgens). After 48 hours in this medium, Compound 2 was added in a range of concentrations (0, 3, 10, 30, and 100 μM) for 24 hours, at which time the synthetic androgen, methyltrienolone (R1881), (Sigma, St. Louis, Mo.) was added (0.5 nM). After an additional 48 hours, cells were lysed as described in Yano A., et al., Proc. Natl. Acad. Sci. USA, 105:15541-46 (2008), and PSA protein was monitored by polyacrylamide gel electrophoresis and Western blotting with an anti-PSA antibody (sc-80304, Santa Cruz Biotechnology).
smiles,measurement,setting,value
O=C(Nc1cccc(Cl)c1Cl)C1CCCCC1 [Compound 2],ligand-dependent nuclear translocation of AR,AR,significantly prevented
same,PSA mRNA expression,PSA mRNA,40 % of control levels
same,PSA protein expression (printed as mRNA expression),PSA protein,20 % of control levels
